Assay results reported in PMC7496508, “Modular Medical Imaging Agents Based on Azide–Alkyne Huisgen Cycloadditions: Synthesis and Pre‐Clinical Evaluation of ^18F‐Labeled PSMA‐Tracers for Prostate Cancer Imaging” (Chemistry (Weinheim an Der Bergstrasse, Germany), 2020).
“And” between values parts separate entries of the source, which are not always exact repeats. Equal values may be shown once.

How the values were obtained:
[1] = radiotracer stability in formulation, radio-HPLC; type: physicochemical; settings: 10 % EtOH/PBS, 4 h
Procedure: Clinical translation requires higher amounts of radioactivity than those manually achievable, which are limited by radiation burden for the radiochemist. Therefore, the synthesis of [^18F]PSMA‐MIC01 was automated on a FlowSafe radiosynthesis module, a continuous‐flow microfluidics platform (see Supporting Information for details). [^18F]PSMA‐MIC01 was produced in an overall RCY of 21 % with an overall production time of 139 min (see Supporting Information for experimental details). The higher RCY can be explained by the use of the microfluidic set up for the [^18F]fluorination towards intermediate [^18F]9. Microfluidic systems have a higher surface‐to‐volume ratio which results in an increased heat transfer capacity compared to in‐batch syntheses.62 This enabled reduction of the effective reaction time of the [^18F]fluorination to 75 s with concomitant reduction of ^18F‐side‐products and increased the intermediary RCY of [^18F]9 to 42 % and overall RCY to 21 %. […] The measured lipophilicity (logD) in n‐octanol/PBS was −3.01±0.22 (see Supporting Information). […]
The stabilities of [18F]PSMA-MIC01 and [18F]PSMA-MIC02 were tested, to ensure the integrity of the tracer in solution. […] After purification and formulation into an injectable solution of 10 % EtOH in PBS, the radiotracer was analysed by HPLC again (B),which was repeated after 2 h (C) and 4 h (D). […]

[2] = tested on: LNCaP (PSMA+) xenografts; assay: ex vivo organ distribution, LNCaP xenograft mice; type: in vivo, Balb/c nude mice
Procedure: All groups were evaluated by visual assessment of the PET image and the percentage injected dose per gram (%ID g^−1).
(§1) The animal experiments were all performed according to the ethical guidelines and approved by the local animal welfare committee of the University of Groningen (IvD number 15166-06-001. All animals were caged separately in individually ventilated cages.
(§2) 7-12 week old immune deficient Balb/c nude mice were inoculated with 200 µL of a 1:1 suspension of medium containing approximately 4 x10^6 LNCaP cells (PSMA positive cells) or 5 x 10^6 PC3 cells (PSMA-negative cells) in RPMI-1640, and Matrigel Basement Membrane Matrix High concentration. The cells were subcutaneously inoculated on the right shoulder.
(§3) After 3 to 5 weeks for LNCaP-xenografts, 2-3 weeks for PC3-xenografts or when a tumor size of 1cm3 was reached, the animals were transported to the PET imaging facility. For the […]
(§4) prepared and 100 µL were injected via penile vein injection 30 min prior to the tracer injection. Animals were anesthetized at 5 % isoflurane and maintained under 2 % isoflurane enriched with O2. The dynamic PET scan was started within 5 min after tracer injection with an acquisition time of 90 min. The static scan was performed 60 min after tracer injection with an acquisition time of 30 min.
7.2. Organ distribution and Metabolite analysis.
After sacrificing the animals, the organs were dissected and measured in a γ-counter. The obtained CPM’s were normalized to %ID/g (Table shown in main text). […]
(§5) In order to check for the significant differences, we also checked for the Cohen’s d, a measurement to determine the effect size. It is calculated on the following formula:
(§6) Cohen′sD = Mean1− Mean2 . […]

[3] = tested on: LNCaP (PSMA+) xenografts; assay: PET image quantification of organ distribution (SUVmeanBW), LNCaP xenograft mice; type: in vivo, Balb/c nude mice
Procedure: The in vivo imaging potential of [^18F]PSMA‐MIC01 was evaluated using a murine animal model (see Supporting Information for experimental details).65 This was performed in a procedure that involved the study of the tumor uptake, binding specificity and comparison to [^68Ga]PSMA‐11. Tumor uptake of [^18F]PSMA‐MIC01 was assessed by performing a 90 min dynamic PET scan.
as §1, §2, §3
as §4, with “30 min. […]” for “30 min.”
as §5, §6

[4] = LNCaP (PSMA+) xenograft blocked with 2-PMPA 30 min prior to tracer
[5] = LNCaP (PSMA+) xenograft, dissected after PET scan
[6] = LNCaP-blocked (PSMA+), 2-PMPA prior to tracer

- ex vivo uptake bone [2, 4]: 0.3±0.1 %ID g^−1
- ex vivo uptake brain [2, 4]: 0.1±0.0 %ID g^−1
- ex vivo uptake heart [2, 4]: 0.7±0.5 %ID g^−1
- ex vivo uptake kidney [2, 4]: 28.5±20.7 %ID g^−1
- ex vivo uptake large intestine [2, 4]: 0.9±0.3 %ID g^−1
- ex vivo uptake liver [2, 4]: 5.7±1.4 %ID g^−1
- ex vivo uptake lungs [2, 4]: 1.1±0.3 %ID g^−1
- ex vivo uptake muscles [2, 4]: 0.3±0.1 %ID g^−1
- ex vivo uptake pancreas [2, 4]: 0.5±0.2 %ID g^−1
- ex vivo uptake plasma [2, 4]: 3.8±1.3 %ID g^−1
- ex vivo uptake salivary glands [2, 4]: 1.0±0.8 %ID g^−1
- ex vivo uptake small intestine [2, 4]: 1.2±1.5 %ID g^−1
- ex vivo uptake spleen [2, 4]: 1.0±0.2 %ID g^−1
- ex vivo uptake stomach [2, 4]: 7.3±16.4 %ID g^−1
- ex vivo uptake tumor [2, 4]: 2.8±0.8 %ID g^−1
- ex vivo uptake urine [2, 4]: 644±627 %ID g^−1
- ex vivo uptake whole blood [2, 4]: 1.8±0.6 %ID g^−1
- ex vivo uptake bone [2, 5]: 0.2±0.1 %ID g^−1
- ex vivo uptake brain [2, 5]: 0.1±0.0 %ID g^−1
- ex vivo uptake heart [2, 5]: 0.6±0.4 %ID g^−1
- ex vivo uptake kidney [2, 5]: 42.0±9.0 %ID g^−1
- ex vivo uptake large intestine [2, 5]: 1.4±1.5 %ID g^−1
- ex vivo uptake liver [2, 5]: 5.6±1.3 %ID g^−1
- ex vivo uptake lungs [2, 5]: 1.3±0.5 %ID g^−1
- ex vivo uptake muscles [2, 5]: 0.5±0.2 %ID g^−1
- ex vivo uptake pancreas [2, 5]: 0.8±0.7 %ID g^−1
- ex vivo uptake plasma [2, 5]: 0.9±5.2 %ID g^−1
- ex vivo uptake salivary glands [2, 5]: 0.5±0.3 %ID g^−1
- ex vivo uptake small intestine [2, 5]: 1.6±2.1 %ID g^−1
- ex vivo uptake spleen [2, 5]: 5.8±3.4 %ID g^−1
- ex vivo uptake stomach [2, 5]: 0.6±0.2 %ID g^−1
- ex vivo uptake tumor [2, 5]: 11.8±4.2 %ID g^−1 and 11.7±4.2 %ID g^−1
- ex vivo uptake urine [2, 5]: 314±420 %ID g^−1
- ex vivo uptake whole blood [2, 5]: 1.6±1.3 %ID g^−1
- SUVmeanBW Bladder ([3]; LNCaP (PSMA+) xenograft): 10.2 ± 6.7
- SUVmeanBW Brain ([3]; LNCaP (PSMA+) xenograft): 0.2 ± 0.1
- SUVmeanBW Heart ([3]; LNCaP (PSMA+) xenograft): 0.4 ± 0.2
- SUVmeanBW Kidney ([3]; LNCaP (PSMA+) xenograft): 4.4 ± 1.4
- SUVmeanBW Liver ([3]; LNCaP (PSMA+) xenograft): 0.8 ± 0.2
- SUVmeanBW Muscle ([3]; LNCaP (PSMA+) xenograft): 0.2 ± 0.1
- SUVmeanBW Tumor ([3]; LNCaP (PSMA+) xenograft): 0.6 ± 0.4
- SUVmeanBW Bladder [3, 6]: 20.7 ± 12.4
- SUVmeanBW Brain [3, 6]: 0.1 ± 0.0
- SUVmeanBW Heart [3, 6]: 0.4 ± 0.1
- SUVmeanBW Kidney [3, 6]: 2.6 ± 1.7
- SUVmeanBW Liver [3, 6]: 0.8 ± 0.4
- SUVmeanBW Muscle [3, 6]: 0.2 ± 0.1
- SUVmeanBW Tumor [3, 6]: 0.3 ± 0.1
Structure (SMILES): O=C(O)CC[C@H](NC(=O)N[C@@H](CCCCNC(=O)c1ccc(-c2cn(CCOCCOCC[18F])nn2)cc1)C(=O)O)C(=O)O [[^18F]PSMA‐MIC01]
- stability of the radiotracer [1]: No degradation products could be detected
